Like-named read-outs stand apart in the source and are kept apart here. Peptide text beside a SMILES is read from it. * marks the point of attachment. Palmitoyl = CCCCCCCCCCCCCCCC(=O)*
Assay: Pharmacokinetics in mice (plasma, LC-MS/MS)
Type: in vivo, mouse
Settings: 25 mg/kg; for MRT: read-out: MRT (mean residence time)
Experimental: The peptide of formula (I) and the peptide of formula (II) were analyzed in mouse EDTA plasma using a validated assay involving trypsin proteolysis and the subsequent analysis of a signature peptide (SEQ ID NO: 3) by liquid chromatography-tandem mass spectrometry (LC-MS/MS). The working solution of unlabeled peptide (SEQ ID NO: 3, 1 mM) was serially diluted in water to obtain 7 standard solutions ranging 0.05-5 μM. Plasma and standard samples (40 μL) were reduced, alkylated and trypsin-digested overnight using the ready-to-use solutions of the ProteinWorks™ eXpress kit (Waters Corporation, Milford, Mass., USA), according to the manufacturer's instructions (except trypsin incubation time optimized to 7 h). The working solution of the labeled proteotypic peptide ([SEQ ID NO: 4]-[^13C6, ^15N4]-K, 1 mM) was used as internal standard (IS) and added to the digestion buffer to a final concentration of 0.5 μM. After digestion, samples were cleaned using 30 mg Oasis HLB 1 cc Cartridges (Waters Corporation). Cartridges were conditioned, equilibrated, loaded, washed and eluted with methanol (1 mL), water (1 mL), samples (˜200 μL), 5% methanol containing 0.1% TFA (1 mL) and 60% methanol containing 0.1% TFA (1 mL), respectively. Eluates were dried under a nitrogen stream, reconstituted with 100 μL of 10% acetonitrile containing 0.1% formic acid, and 10 μL were injected into the LC-MS/MS system. LC-MS/MS analyses were performed on a Xevo® TQD mass spectrometer with an electrospray (ESI) interface and an Acquity H-Class® UPLC™ device (Waters Corporation). Proteotypic peptides were separated over 9 min on an Acquity® BEH C18 column (2.1×100 mm, 1.7 μm, Waters Corporation) held at 60° C. with a linear gradient of mobile phase B (100% acetonitrile) in mobile phase A (5% acetonitrile), each containing 0.1% formic acid, and at a flow rate of 600 μL/min. […] Proteotypic peptides were then detected by the mass spectrometer with the ESI interface operating in the positive ion mode (capillary voltage, 3 kV; desolvatation gas (N2) flow and temperature, 900 L/h and 400° C.; source temperature, 150° C.). The multiple reaction monitoring mode was applied for MS/MS detection (SEQ ID NO: 3, m/z 368.8→536.5, y6^+; [SEQ ID NO: 4]-[^13C6, ^15N4]-K, m/z 372.8→544.4, y6) with cone and collision voltages set at 20 and 14 V, respectively. Data acquisition and analyses were performed with MassLynx® and TargetLynx® software, respectively (version 4.1, Waters Corporation). Chromatographic peak area ratio between unlabeled peptide and IS constituted the detector responses. Standard solutions were used to plot calibration curves for peptide quantification. The linearity was expressed by the mean r^2 which was greater than 0.998 (linear regression, 1/x weighting, origin excluded). […] The peptide of formula (I) and the peptide of formula (II) concentrations were expressed in μM assuming 1 mole of peptide equivalent to 1 mole of the peptide of formula (I) and the peptide of formula (II), respectively. Concentrations were then converted to their standard unit (ng/mL) assuming molecular weights of 3540 Da and 3917 Da for the peptide of formula (I) and the peptide of formula (II), respectively.
Wild-type C57B/L6J male mice were purchased from Janvier Labs (Le Genest Saint Isle, France). Mice were caged in animal rooms under specific pathogen free conditions at the animal facility of Rangueil (Anexplo platform, US006, Toulouse, France) with a light/dark schedule of 12 h/12 h and were fed ad libitum with a normal chow diet (#V1535 R/M-H, Ssniff, Germany). All animal experimental procedures were conducted in accordance with institutional guidelines on animal experimentation approved by the local ethical committee of animal care and are conformed to the guidelines from Directive 2010/63/EU of the European Parliament on the protection of animals used for scientific purposes or the NIH guideline. […]

[1] = male, C57B/L6J, mouse, plasma, sc
[2] = male, C57B/L6J, mouse, plasma, sc, sc
[3] = male, C57B/L6J, mouse, plasma, sc, sc, read-out: t1/2lbd1 (distribution half-life) (converted)
[4] = male, C57B/L6J, mouse, plasma, sc, sc, read-out: t1/2lbdz (elimination half-life) (converted)

| AUC [1] | Cmax [1] | Tmax [1] | MRT [2] | half-life [3] | half-life [4] | Cl (total plasma clearance) (sc) | Vd (volume of distribution) (sc) | AUC (male, C57B/L6J, mouse, plasma, iv) | MRT (male, C57B/L6J, mouse, plasma, iv, iv) | half-life (male, C57B/L6J, mouse, plasma, iv, iv, read-out: t1/2lbd1 (distribution half-life) (converted)) | half-life (male, C57B/L6J, mouse, plasma, iv, iv, read-out: t1/2lbdz (elimination half-life) (converted)) | clearance (male, C57B/L6J, mouse, plasma, iv, read-out: Cl (total plasma clearance) (converted)) | Vd (male, C57B/L6J, mouse, plasma, iv, read-out: Vd (volume of distribution)) | Compound |
| --- | --- | --- | --- | --- | --- | --- | --- | --- | --- | --- | --- | --- | --- | --- |
| 211000 ng·h/mL | 25600 ng/mL | 240 min | 349 min | 125 min | 752 min | 0.83 mL/min/kg | 1 L/kg |  |  |  |  |  |  | CCCCCCCCCCCCCCCC(=O)NCCCC[C@H](NC(=O)[C@H](CCC(=O)O)NC(=O)[C@H](CCCNC(=N)N)NC(=O)[C@H](CO)NC(=O)[C@H](CCC(N)=O)NC(=O)[C@H](C)NC(=O)[C@H](CCCNC(=N)N)NC(=O)[C@H](Cc1ccccc1)NC(=O)[C@H](Cc1ccc(O)cc1)NC(=O)[C@H](CCCNC(=N)N)NC(=O)[C@H](CCC(=O)O)NC(=O)[C@H](CCC(=O)O)NC(=O)[C@H](CCC(=O)O)NC(=O)[C@H](C)NC(=O)[C@H](CCC(N)=O)NC(=O)[C@H](CCC(=O)O)NC(=O)[C@H](CCCNC(=N)N)NC(=O)[C@H](CCCCN)NC(=O)CNC(=O)[C@H](Cc1ccccc1)NC(=O)[C@H](C)NC(=O)CNC(=O)CNC(=O)[C@H](C)NC(=O)[C@H](CCC(=O)O)NC(=O)[C@H](CCCNC(=N)N)NC(=O)[C@@H](NC(=O)[C@H](CO)NC(=O)CNC(=O)[C@H](C)NC(=O)CNC(=O)[C@H](CCCNC(=N)N)NC(C)=O)[C@@H](C)CC)C(N)=O [peptide of formula (II), CH3CO-[SEQ ID NO: 1]-K-[palmitoyl]-NH2] (Ac-RGAGSIREAGGAFGKREQAEEERYFRAQSREK(Palmitoyl)-NH2) |
| 6140 ng·h/mL | 8290 ng/mL | 15 min | 33 min | 11.4 min | 12.6 min |  | 0.5 L/kg | 13300 ng·h/mL | 8.4 min | 3.6 min | 15.6 min | 31.7 mL/min/kg | 0.7 L/kg | Ac-RGAGSIREAGGAFGKREQAEEERYFRAQSRE-NH2 [peptide of formula (I), CH3CO-[SEQ ID NO: 1]-NH2] |

— patent US20230050846A1, “TREATMENT OF HEPATIC AND CARDIOVASCULAR DISORDERS” (LIFESEARCH, priority 2019, published 2023)
